Key:
Adenosine receptor A1 [1] = target: T1, Adenosine receptor A1 (Homo sapiens, UniProt P30542); assay: Displacement of [3H]-CCPA from human recombinant adenosine A1 receptor transfected in CHO cells; assay type: cell-based
T1 sequence (P30542 whole entry): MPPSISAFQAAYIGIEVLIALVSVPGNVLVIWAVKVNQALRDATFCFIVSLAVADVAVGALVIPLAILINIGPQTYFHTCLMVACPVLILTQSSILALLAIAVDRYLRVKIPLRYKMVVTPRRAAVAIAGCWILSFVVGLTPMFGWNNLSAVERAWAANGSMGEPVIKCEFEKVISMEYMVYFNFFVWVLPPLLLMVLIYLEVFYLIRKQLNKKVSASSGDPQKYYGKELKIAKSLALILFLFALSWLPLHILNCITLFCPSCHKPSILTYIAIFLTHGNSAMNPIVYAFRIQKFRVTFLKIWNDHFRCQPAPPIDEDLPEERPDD

Adenosine receptor A2a [2] = target: T2, Adenosine receptor A2a (Homo sapiens, UniProt P29274); assay: Displacement of [3H]-NECA from human recombinant adenosine A2A receptor transfected in CHO cells; assay type: cell-based
Adenosine receptor A3 [3] = target: T3, Adenosine receptor A3 (Homo sapiens, UniProt P0DMS8); assay: Displacement of [3H]-HEMADO from human recombinant adenosine A3 receptor transfected in CHO cells; assay type: cell-based
T3 sequence (P0DMS8 whole entry): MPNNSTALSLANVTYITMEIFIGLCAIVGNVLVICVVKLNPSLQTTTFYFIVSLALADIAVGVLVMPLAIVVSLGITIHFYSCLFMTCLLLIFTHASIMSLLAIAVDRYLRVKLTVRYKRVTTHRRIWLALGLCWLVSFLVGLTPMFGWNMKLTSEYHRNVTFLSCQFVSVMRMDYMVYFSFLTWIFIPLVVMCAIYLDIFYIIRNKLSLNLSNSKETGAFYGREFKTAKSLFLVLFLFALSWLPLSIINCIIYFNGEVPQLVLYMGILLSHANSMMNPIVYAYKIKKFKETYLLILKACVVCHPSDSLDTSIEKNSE

Homo sapiens [4] = organism: Homo sapiens; assay: Selectivity ratio of Ki for human recombinant adenosine A2A receptor to Ki for human recombinant adenosine A1 receptor
Homo sapiens [5] = organism: Homo sapiens; assay: Selectivity ratio of Ki for human recombinant adenosine A2A receptor to Ki for human recombinant adenosine A3 receptor
[6] = target: T4, Adenosine receptor A1 (Homo sapiens) (UniProt P30542); assay: (§1) Agonist activity at human recombinant adenosine A1 receptor transfected in CHO cells assessed as inhibition of forskolin-induced adenylyl cyclase activity; assay type: functional, cell-based
T4 sequence (whole entry): T1 sequence (P30542 whole entry)

Adenosine receptor A1 [7] = target: T1, Adenosine receptor A1; assay: as §1; assay type: functional, cell-based
Adenosine receptor A2a [8] = target: T2, Adenosine receptor A2a; assay: Agonist activity at human recombinant adenosine A2A receptor transfected in CHO cells assessed as induction of adenylyl cyclase activity; assay type: functional, cell-based
Adenosine receptor A2b = target: T5, Adenosine receptor A2b (Homo sapiens, UniProt P29275); assay: (§2) Agonist activity at human recombinant adenosine A2B receptor transfected in CHO cells assessed as induction of adenylyl cyclase activity; assay type: functional, cell-based
T5 sequence (P29275 whole entry): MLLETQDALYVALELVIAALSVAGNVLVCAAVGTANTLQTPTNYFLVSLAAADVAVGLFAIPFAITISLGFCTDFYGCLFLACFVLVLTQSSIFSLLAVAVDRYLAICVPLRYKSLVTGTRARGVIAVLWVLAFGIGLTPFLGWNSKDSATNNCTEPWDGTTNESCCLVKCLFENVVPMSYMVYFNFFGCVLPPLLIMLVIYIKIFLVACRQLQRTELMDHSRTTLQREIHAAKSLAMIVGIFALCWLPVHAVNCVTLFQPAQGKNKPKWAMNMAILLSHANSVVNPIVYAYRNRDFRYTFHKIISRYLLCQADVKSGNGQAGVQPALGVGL

Adenosine receptor A3 [9] = target: T3, Adenosine receptor A3; assay: Antagonist activity at human recombinant adenosine A3 receptor transfected in CHO cells assessed as reversal of NECA-induced inhibition of forskolin-induced adenylyl cyclase activity; assay type: functional, cell-based
[10] = target: T6, Adenosine receptor A2b (Homo sapiens) (UniProt P29275); assay: Partial agonist activity at human recombinant adenosine A2B receptor transfected in CHO cells assessed as induction of adenylyl cyclase activity relative to NECA; assay type: functional, cell-based
T6 sequence (whole entry): T5 sequence (P29275 whole entry)

[11] = target: T6, Adenosine receptor A2b (Homo sapiens); assay: as §2; assay type: functional, cell-based

T2 sequence (P29274 whole entry): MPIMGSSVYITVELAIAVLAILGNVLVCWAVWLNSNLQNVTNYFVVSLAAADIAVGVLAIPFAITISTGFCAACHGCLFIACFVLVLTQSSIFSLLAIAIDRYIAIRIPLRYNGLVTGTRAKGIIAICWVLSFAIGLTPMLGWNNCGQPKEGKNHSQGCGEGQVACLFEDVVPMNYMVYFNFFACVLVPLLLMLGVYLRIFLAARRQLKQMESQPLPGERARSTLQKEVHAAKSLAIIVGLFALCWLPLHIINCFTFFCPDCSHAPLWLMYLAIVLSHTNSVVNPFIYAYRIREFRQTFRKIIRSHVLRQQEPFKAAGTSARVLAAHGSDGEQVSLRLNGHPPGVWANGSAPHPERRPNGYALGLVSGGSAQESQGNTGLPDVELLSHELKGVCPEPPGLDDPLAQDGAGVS

Compound | Ki (Adenosine receptor A1 [1]) | Ki (Adenosine receptor A2a [2]) | Ki (Adenosine receptor A3 [3]) | Ratio Ki (Homo sapiens [4]) | Ratio Ki (Homo sapiens [5]) | Efficacy [6] | EC50 (Adenosine receptor A1 [7]) | EC50 (Adenosine receptor A2a [8]) | Efficacy (Adenosine receptor A2a [8]) | EC50 (Adenosine receptor A2b) | EC50 (Adenosine receptor A3 [9]) | Activity [10] | Efficacy [11] | Efficacy [10]
CCn1nnc([C@H]2O[C@@H](n3cnc4c(NC)nc(Cl)nc43)[C@H](O)[C@@H]2O)n1 | 8.59 nM | 3350 nM | 0.429 nM | 390 | 7800 | > 90% | 250 nM | 238 nM | > 90% | 3510 nM | 7.69 nM | 75% |  | 
CCn1nnc([C@H]2O[C@@H](n3cnc4c(NC5CCCO5)nc(Cl)nc43)[C@H](O)[C@@H]2O)n1 (stereo not given in full) | 1.06 nM | 870 nM | 9.62 nM |  |  | > 90% | 7.42 nM | 33.2 nM | > 90% | 3150 nM | 104 nM |  | > 90% | 
CCn1nnc([C@H]2O[C@@H](n3cnc4c(NCc5ccccc5I)nc(Cl)nc43)[C@H](O)[C@@H]2O)n1 | 2.39 nM | 108 nM | 0.588 nM |  |  | > 90% | 64.9 nM | 9.04 nM |  | 834 nM | 13.3 nM |  |  | 76%
CCn1nnc([C@H]2O[C@@H](n3cnc4c(Nc5ccc(Cl)cc5F)nc(Cl)nc43)[C@H](O)[C@@H]2O)n1 | 1.67 nM | 223 nM | 4.71 nM |  |  | > 90% | 64.8 nM | 28.8 nM | > 90% |  | 37 nM |  | > 90% | 
CCn1nnc([C@H]2O[C@@H](n3cnc4c(N[C@H]5C[C@@H]6CC[C@@H]5C6)nc(Cl)nc43)[C@H](O)[C@@H]2O)n1 (racemic) | 0.728 nM | 164 nM | 16.1 nM |  |  | > 90% | 10.2 nM | 12.8 nM | > 90% | > 30000 nM | 721 nM |  | > 90% | 
CCn1nnc([C@H]2O[C@@H](n3cnc4c(N)ncnc43)[C@H](O)[C@@H]2O)n1 | 0.919 nM | 8.12 nM | 3.86 nM |  |  | > 90% | 26.3 nM | 2.36 nM | > 90% | 347 nM | 93.6 nM |  | > 90% | 
CCn1nnc([C@H]2O[C@@H](n3cnc4c(N)nc(Cl)nc43)[C@H](O)[C@@H]2O)n1 | 0.966 nM | 20.7 nM | 1.8 nM |  |  | > 90% | 19.8 nM | 3.84 nM | > 90% | 542 nM | 31.7 nM |  | > 90% | 

Source: ChEMBL document CHEMBL3414438, “5'-C-Ethyl-tetrazolyl-N(6)-substituted adenosine and 2-chloro-adenosine derivatives as highly potent dual acting A1 adenosine receptor agonists and A3 adenosine receptor antagonists” (J Med Chem, 2015)
